Where “and” joins values, the source holds several entries; their conditions need not be identical. Equal values may be shown once. Records with an inconclusive call do not appear.
Tested on: MX-1 breast xenograft, intrarenal, nude mice, tumor weight
Test: NCI In Vivo Anticancer Drug Screen. Data for tumor model Human Mammary Carcinoma MX-1 Xenograft (intrarenal inoculation) in NU/NU BALB/C (nude) mice
Conditions: endpoint: mean tumor weight change, higher = larger tumour
Outline: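 Efficacy in vivo: tumor measurement or survival of treated animals divided by that of vehicle-dosed controls.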

[1] = dose: 75.0 mg/kg/injection, schedule: Q04DX003 (ip), vehicle: Klucel (hydroxypropylcellulose) (HPC)
[2] = dose: 150.0 mg/kg/injection, schedule: Q04DX003 (ip), vehicle: saline with Tween-80
[3] = dose: 300.0 mg/kg/injection, schedule: Q04DX003 (ip), vehicle: saline with Tween-80
[4] = dose: 1200.0 mg/kg/injection, schedule: Q04DX003 (ip), vehicle: saline with Tween-80
[5] = dose: 600.0 mg/kg/injection, schedule: Q04DX003 (ip), vehicle: saline with Tween-80

What does the source list for `COc1ccc(Cl)[n+]([O-])n1`?
T/C (dose: 25.0 mg/kg/injection, schedule: Q04DX003 (sc), vehicle: Klucel (hydroxypropylcellulose) (HPC)): 119 % of control; T/C (dose: 50.0 mg/kg/injection, schedule: Q04DX003 (sc), vehicle: Klucel (hydroxypropylcellulose) (HPC)): 111 % of control; T/C (dose: 100.0 mg/kg/injection, schedule: Q04DX003 (sc), vehicle: Klucel (hydroxypropylcellulose) (HPC)): 106 % of control

Which T/C (dose: 100.0 mg/kg/injection, schedule: Q04DX003 (sc), vehicle: saline with Tween-80) does the source give for `CCCCOCN(COCCCC)C12CC3CC(CC(C3)C1)C2` here?
Its T/C is 48 % of control.

What about the T/C (dose: 200.0 mg/kg/injection, schedule: Q04DX003 (sc), vehicle: saline with Tween-80) of the same compound?
The T/C was 45 % of control.

And the T/C (dose: 400.0 mg/kg/injection, schedule: Q04DX003 (sc), vehicle: saline with Tween-80)?
Its T/C is 76 % of control.

For `COc1cc2c(c3c1c(=O)c1cccc(F)c1n3C)C=CC(C)(C)O2`, which T/C [1] is on record?
The T/C was 46 % of control.

How did the T/C (dose: 50.0 mg/kg/injection, schedule: Q04DX003 (sc), vehicle: saline) turn out when `Nc1ccn([C@@H](C=O)O[C@@H](C=O)CO)c(=O)n1` was run?
Its T/C is 70 % of control.

And the T/C (dose: 100.0 mg/kg/injection, schedule: Q04DX003 (sc), vehicle: saline)?
Its T/C is 14 % of control.

And the T/C (dose: 200.0 mg/kg/injection, schedule: Q04DX003 (sc), vehicle: saline)?
The T/C was -85 % of control.

Which T/C (dose: 75.0 mg/kg/injection, schedule: Q04DX003 (ip), vehicle: other) does the source give for `Cc1noc2nc(-c3ccccc3)cc(N3CCN(C)CC3)c12` here?
The T/C was 83 % of control.

What about the T/C (dose: 150.0 mg/kg/injection, schedule: Q04DX003 (ip), vehicle: other) of the same compound?
The T/C was 120 % of control.

And the T/C (dose: 300.0 mg/kg/injection, schedule: Q04DX003 (ip), vehicle: other)?
The T/C was 92 % of control.

For `Oc1ccc(/C=N/N=C/c2ccc(O)c(O)c2)cc1O`, which T/C (dose: 75.0 mg/kg/injection, schedule: Q04DX003 (ip), vehicle: saline with Tween-80) is on record?
Its T/C is 68 % of control.

And the T/C [2]?
Its T/C is 46 % of control.

What about the T/C [3] of the same compound?
The T/C was 78 % of control.

And the T/C [4]?
Its T/C is 82 % of control.

`CC(=O)CC(=O)CCC(=O)O` was tested. Which T/C (dose: 300.0 mg/kg/injection, schedule: Q04DX003 (sc), vehicle: saline) did it give?
Its T/C is 88 % of control.

What about the T/C (dose: 1200.0 mg/kg/injection, schedule: Q04DX003 (sc), vehicle: saline) of the same compound?
The T/C was 78 % of control.

With `O=C1c2ccccc2C(Cl)(c2ccc(Cl)cc2)c2ccc(Cl)cc21` (stereo not given) as the compound, how does the T/C [2] read?
Its T/C is 53 % of control.

What about the T/C [3] of the same compound?
The T/C was 60 % of control.

And the T/C [5]?
Its T/C is 48 % of control.

And the T/C [4]?
Its T/C is 30 % of control.

For `COc1cccc2c1C(=N)c1c(O)c3c(c(O)c1C2=O)C[C@@](O)(C(C)=O)C[C@@H]3OC1CC(N)C(O)C(C)O1` (stereo not given in full), which T/C (dose: 4.0 mg/kg/injection, schedule: Q01DX010 (sc), vehicle: water) is on record?
The T/C was 51 % of control.

What about the T/C (dose: 8.0 mg/kg/injection, schedule: Q01DX010 (sc), vehicle: water) of the same compound?
Its T/C is 56 % of control.

What about the T/C (dose: 16.0 mg/kg/injection, schedule: Q01DX010 (sc), vehicle: water) of the same compound?
The T/C was 56 % of control.

`CCOC(=O)Nc1cc2c(c(N)n1)N=C(c1ccccc1)CO2` was tested. Which T/C [2] did it give?
The T/C was 73 % of control.

And the T/C [3]?
Its T/C is 80 % of control.

And the T/C [5]?
The T/C was 51 % of control.

And the T/C [4]?
The T/C was 68 % of control.

How did the T/C (dose: 300.0 mg/kg/injection, schedule: Q04DX003 (sc), vehicle: saline with Tween-80) turn out when `C=COC(=O)C(Cc1ccccc1)NC(=O)OCc1ccccc1` (stereo not given) was run?
The T/C was 63 % of control.

And the T/C (dose: 600.0 mg/kg/injection, schedule: Q04DX003 (sc), vehicle: saline with Tween-80)?
The T/C was 85 % of control.

And the T/C (dose: 1200.0 mg/kg/injection, schedule: Q04DX003 (sc), vehicle: saline with Tween-80)?
The T/C was 112 % of control.

How did the T/C (dose: 30.0 mg/kg/injection, schedule: Q01DX001 (ip), vehicle: saline) turn out when `COC(=O)C1C2CCCN2OC1(C)CO` (stereo not given) was run?
Its T/C is 224 % of control.

What about the T/C (dose: 240.0 mg/kg/injection, schedule: Q01DX001 (ip), vehicle: saline) of the same compound?
Its T/C is 118 % of control.

And the T/C (dose: 480.0 mg/kg/injection, schedule: Q01DX001 (ip), vehicle: saline)?
Its T/C is 80 % of control.

Which results are given for `O=CC(NC(=O)N(CCCl)N=O)C(O)C(O)C(O)CO` (stereo not given)?
T/C (dose: 3.0 mg/kg/injection, schedule: Q01DX010 (sc), vehicle: Klucel (hydroxypropylcellulose) (HPC)): 59 % of control; T/C (dose: 6.0 mg/kg/injection, schedule: Q01DX010 (sc), vehicle: Klucel (hydroxypropylcellulose) (HPC)): 51 % of control

Which results are given for `CCS/C(SC)=C(/c1ccccc1)[P+](c1ccccc1)(c1ccccc1)c1ccccc1`?
T/C (dose: 9.38 mg/kg/injection, schedule: Q04DX003 (sc), vehicle: Klucel (hydroxypropylcellulose) (HPC)): 92 % of control; T/C (dose: 18.75 mg/kg/injection, schedule: Q04DX003 (sc), vehicle: Klucel (hydroxypropylcellulose) (HPC)): 111 % of control; T/C (dose: 37.5 mg/kg/injection, schedule: Q04DX003 (sc), vehicle: Klucel (hydroxypropylcellulose) (HPC)): 75 % of control

With `NC(=O)C1=CC2C3C=CC2(O)C(=O)OC3O1` (stereo not given) as the compound, how does the T/C (dose: 37.5 mg/kg/injection, schedule: Q04DX003 (ip), vehicle: Klucel (hydroxypropylcellulose) (HPC)) read?
The T/C was 54 % of control.

What about the T/C [1] of the same compound?
Its T/C is 42 % of control.

What does the source list for `O=C[C@@H](CO)O[C@H](C=O)c1c[nH]c(=O)[nH]c1=O`?
T/C (dose: 25.0 mg/kg/injection, schedule: Q04DX003 (ip), vehicle: saline): 71 % of control; T/C (dose: 37.5 mg/kg/injection, schedule: Q04DX003 (ip), vehicle: saline): 54 % of control; T/C (dose: 100.0 mg/kg/injection, schedule: Q04DX003 (ip), vehicle: saline): 5 % of control and 9 % of control and 28 % of control; T/C (dose: 125.0 mg/kg/injection, schedule: Q04DX003 (ip), vehicle: saline): 4 % of control and 7 % of control

With `COc1cc2cc(c1Cl)N(C)C(=O)C[C@H](OC(=O)[C@H](C)N(C)C(C)=O)[C@]1(C)O[C@H]1[C@H](C)[C@@H]1C[C@@](O)(NC(=O)O1)[C@H](OC)C=C/C=C(\C)C2` as the compound, how does the T/C (dose: 12.5 micrograms/kg/injection, schedule: Q01DX010 (sc), vehicle: Klucel (hydroxypropylcellulose) (HPC)) read?
The T/C was 152 % of control.

What about the T/C (dose: 25.0 micrograms/kg/injection, schedule: Q01DX010 (sc), vehicle: Klucel (hydroxypropylcellulose) (HPC)) of the same compound?
The T/C was 73 % of control.

What about the T/C (dose: 50.0 micrograms/kg/injection, schedule: Q01DX010 (sc), vehicle: Klucel (hydroxypropylcellulose) (HPC)) of the same compound?
The T/C was 75 % of control.

What about the T/C (dose: 100.0 micrograms/kg/injection, schedule: Q01DX010 (sc), vehicle: Klucel (hydroxypropylcellulose) (HPC)) of the same compound?
Its T/C is 14 % of control.

What about the T/C (dose: 200.0 micrograms/kg/injection, schedule: Q01DX010 (sc), vehicle: Klucel (hydroxypropylcellulose) (HPC)) of the same compound?
The T/C was -78 % of control.

`N[C@@H](C[C@H]1CCC(=O)[C@@H]2O[C@H]12)C(=O)O` was tested. Which T/C (dose: 150.0 mg/kg/injection, schedule: Q04DX003 (ip), vehicle: saline) did it give?
Its T/C is 94 % of control.

And the T/C (dose: 150.0 mg/kg/injection, schedule: Q04DX003 (ip), vehicle: suspension in saline)?
Its T/C is 100 % of control.

What about the T/C (dose: 300.0 mg/kg/injection, schedule: Q04DX003 (ip), vehicle: saline) of the same compound?
Its T/C is 90 % of control.

And the T/C (dose: 300.0 mg/kg/injection, schedule: Q04DX003 (ip), vehicle: suspension in saline)?
Its T/C is 75 % of control.

What about the T/C (dose: 600.0 mg/kg/injection, schedule: Q04DX003 (ip), vehicle: saline) of the same compound?
The T/C was 104 % of control.

What about the T/C (dose: 600.0 mg/kg/injection, schedule: Q04DX003 (ip), vehicle: suspension in saline) of the same compound?
Its T/C is 82 % of control.

And the T/C (dose: 1200.0 mg/kg/injection, schedule: Q04DX003 (ip), vehicle: saline)?
Its T/C is 47 % of control.

And the T/C (dose: 1200.0 mg/kg/injection, schedule: Q04DX003 (ip), vehicle: suspension in saline)?
The T/C was 62 % of control.

How did the T/C (dose: 150.0 mg/kg/injection, schedule: Q04DX003 (sc), vehicle: saline) turn out when `NNC(=O)c1ccncc1` was run?
Its T/C is 123 % of control.

How did the T/C (dose: 100.0 mg/kg/injection, schedule: Q04DX003 (ip), vehicle: Klucel (hydroxypropylcellulose) (HPC)) turn out when `O=C1CSC(c2cccs2)N1c1nncs1` (stereo not given) was run?
Its T/C is 92 % of control.

And the T/C (dose: 200.0 mg/kg/injection, schedule: Q04DX003 (ip), vehicle: Klucel (hydroxypropylcellulose) (HPC))?
Its T/C is 102 % of control.

What about the T/C (dose: 400.0 mg/kg/injection, schedule: Q04DX003 (ip), vehicle: Klucel (hydroxypropylcellulose) (HPC)) of the same compound?
The T/C was 57 % of control.

And the T/C (dose: 800.0 mg/kg/injection, schedule: Q04DX003 (ip), vehicle: Klucel (hydroxypropylcellulose) (HPC))?
The T/C was 49 % of control.

From PubChem BioAssay AID298 (DTP/NCI, 2004)
